≈ marks a conversion by molar mass, not a printed value.
How the values were obtained:
S. pyogenes = experiment: microbe, parasite or virus in culture; conditions: for bacteriostatic and bactericidal activity: S. pyogenes, in vitro; for MBC / MIC: Streptococcus pyogenes; for MBC: read-out: MBC (Minimum Bactericidal Concentration); for MIC: read-out: MIC (Minimum Inhibitory Concentration)
Description: (§1) Miller et al., Arch Dermatol 124:209-15, 1988; Wille and Kydonieus, Skin Pharmacol Appl Skin Physiol 16:176-87, 2003. To test the working hypothesis, a series of in vitro experiments were first performed in which the effect of each lipid was measured on the growth of S. pyogenes, S. aureus and E. coli.
(§2) Bacteria. S. aureus Xen8.1 (parental strain 8325-4), S. pyogenes Xen20 (derived from serotype M49, strain 591) and E. coli Xen14 (derived from EPEC WS2572) were obtained from Xenogen (Carnbury, N.J.)

S. aureus [1] = experiment: Minimum inhibitory and bactericidal concentration on S. aureus in vitro; type: cell-based, Staphylococcus aureus; conditions: for bacteriostatic and bactericidal activity: in vitro
Description: as §1, §2

S. aureus [2] = experiment: S. aureus skin infection in wild-type (C57BL/6) mice, luminescence and wound size; type: in vivo, mouse
Description: To investigate the physiological relevance of this antimicrobial activity, wild-type mice were inoculated with S. aureus and treated the infected animals by repeated (every two days) subcutaneous injections of palmitoleate (100 μl of a 100 μM solution in DMSO), or DMSO alone at the site of infection. The results of this experiment are illustrated in FIGS. 6A and B. For both groups of mice (n=6 animals), luminescence is expressed as a percentage of the initial inoculum, determined 24 hours after infection. […] As a consequence of improved S. aureus elimination, the diameter of the ulcerative wound (measured at day 9) in lipid-treated animals is one fourth that observed in controls (FIG. 6C).
A. Palmitoleate injection accelerates bacterial clearance in wild-type mice. Luminescence (expressed as a percentage of the initial inoculum) was measured in control (C57BL/6) mice inoculated with S. aureus (at day 0) and treated by vehicle (DMSO) or palmitoleate injections every two days (arrows). […] Histogram showing the size of the lesion measured at day 9 after the infection in control (B6) mice treated with DMSO or palmitoleate. ** indicates P value <0.01. […] F. Size of the lesion (determined at day 12) in infected flk mutants treated with DMSO or palmitoleate. * indicates P value <0.05. […]

S. aureus [3] = experiment: S. aureus skin infection in flake (flk/flk) mutant mice; type: in vivo, mouse; conditions: flake mutants; 100 μl of 100 μM every two days
Description: However, complete rescue of the phenotype was not achieved by this pharmacological approach.
A. Palmitoleate injection accelerates bacterial clearance in wild-type mice. Luminescence (expressed as a percentage of the initial inoculum) was measured in control (C57BL/6) mice inoculated with S. aureus (at day 0) and treated by vehicle (DMSO) or palmitoleate injections every two days (arrows). B. Picture of control (C57BL/6) mice 9 days after S. aureus infection treated by DMSO (top) or palmitoleate (bottom) injections. C. Histogram showing the size of the lesion measured at day 9 after the infection in control (B6) mice treated with DMSO or palmitoleate. ** indicates P value <0.01. D. Palmitoleate treatment in S. aureus-infected flake mice. The protocol is similar as in A, except that 100 μl injections of a 75 mM solution of palmitoleate were performed. E. Pictures of infected flake mice at day 12 after DMSO (top) or palmitoleate (bottom) treatment. F. Size of the lesion (determined at day 12) in infected flk mutants treated with DMSO or palmitoleate. * indicates P value <0.05.
Skin infection. […] Luminescence was monitored daily with a CCD camera (5 min exposure of the animals) and quantification was done with the IVIS program from Xenogen.

[4] = system: Scd1 expression in peritoneal macrophages; experiment: Scd1 expression by RT-PCR in stimulated peritoneal macrophages; type: cell-based; conditions: wild-type mouse peritoneal macrophages, within 18 hours after stimulation
Source text: A. SignalScan analysis of the Scd1 promoter. NF-κB and ISRE (interferon-stimulated regulatory element) are shown. B. RT-PCR detection of Scd1 and β-actin transcripts in skin biopsies of non-infected controls (C57BL/6, lane 1) and Tlr2−/− (lane 4) animals or after infection by S. aureus (lanes 2 and 5) or E. coli (lane 3). PCR products after 30 and 40 cycles are shown. M, size standard. C. RT-PCR detection of Scd1 and β-actin transcripts in controls (0) and MALP-induced peritoneal macrophages isolated from wild-type mice after 2, 4, 8 and 18 h. D. Quantification of the Scd1/β-actin ratio.
Macrophages, which represent an ideal system in which to study TLR signaling, also express the Scd1 gene, as reported recently. Uryu et al., Biochem Biophys Res Commun 303:302-5, 2003. To determine whether isolated macrophages are capable of upregulating Scd1 and to determine the kinetics of the response, peritoneal macrophages isolated from wild-type mice were stimulated with, synthetic macrophage-activating lipopeptide (MALP-2, EMC microcollections GmbH, Germany), a known TLR2 agonist. Takeuchi et al., J Immunol 164:554-7, 2000. […]
Semi-quantitative RT-PCR. […] Hoebe et al., J Endotoxin Res 9:250-5, 2003. hSCD1 and hFADS2 expression SZ95 sebocytes was measured by semi-quantitative RT-PCR using the following oligonucleotides: […]

SZ95 sebocytes = experiment: SZ95 human sebocytes: IL-6/IL-8 ELISA and SCD1/FADS2 RT-PCR; type: cell-based; conditions: SZ95 cells
Source text: To corroborate potential relevance of inducible Scd1 expression in human skin defense against Gram-positive pathogens, the effect of MALP-2 was investigated on the immortalized human sebocyte cell line SZ95. Zouboulis et al., J. Invest Dermatol. 113:1011-1020, 1999. […] These observations were extended by monitoring the expression of the fatty acid desaturase2 (FADS2) gene. FADS2 encodes a protein with enzymatic properties similar to those of SCD1 and was recently shown to be deficient in a patient affected by a severe skin condition manifested by cheilosis, a hyperkeratotic rash over the arms and legs and perineal dermatitis. Williard et al., J. Lipid Res. 42:501-508, 2001.
A. IL-6 production is induced in SZ95 cells after MALP-2 treatment (50 ng/ml). […] B. Quantification of IL-8 in the same conditions as in A. C. RT-PCR detection of SCD1 and FADS2 expression 4 and 18 hours after LPS and MALP-2 stimulation. GAPDH expression was used as control. D. Quantification of the SCD1 and FADS2 signals measured in two independent experiments (+/− s.e.m) after normalization with the GAPDH signal.
Cell culture. SZ95 sebocytes were maintained in HSG-Med (Sebomed, Berlin, Germany) supplemented with 10% heat inactivated FCS, 5 ng/ml human epidermal growth factor, 1 mM CaCl2, 10^−5 M palmitic acid, 50 μg/ml gentamicin for 2, 4, 8 and 18 hours with/without 50 ng/ml MALP-2 or 100 ng/ml LPS and the supernatants were collected for IL6 and IL8 evaluation by ELISA. RNA was isolated from the 4- and 18-hour samples by the RNeasy Midi kit (Qiagen, Hilden, Germany) and purified by the RNase-Free DNase set (Qiagen) for RT-PCR.
Semi-quantitative RT-PCR. Wild-type and Tlr2^−/− mutant mice were depilated and infected by subcutaneous injection of S. aureus or E. coli (5×10^5 […]). After 24 h, the skin of the infected area was dissected and total RNA was extracted by the Trizol (Gibco) method. […] Hoebe et al., J Endotoxin Res 9:250-5, 2003. hSCD1 and hFADS2 expression SZ95 sebocytes was measured by semi-quantitative RT-PCR using the following oligonucleotides: […]

[5] = Staphylococcus aureus, average of 3 experiments

| Compound | bacteriostatic and bactericidal activity (S. pyogenes) | MBC (S. pyogenes) | MIC (S. pyogenes) | MIC (S. aureus [1]; [5]) | bacteriostatic and bactericidal activity (S. aureus [1]) | MBC (S. aureus [1]; [5]) | reduction of luminescence compared to vehicle-treated mice (S. aureus [2]; 9 days after S. aureus inoculation, s.c. 100 μl of 100 μM in DMSO every two days) | diameter of the ulcerative wound relative to controls (S. aureus [2]; measured at day 9, s.c. 100 μl of 100 μM every two days) | bacterial growth (S. aureus [3]) | increase of Scd1 expression [4] | SCD1 transcription (SZ95 sebocytes; 4 hours after stimulation) | FADS2 expression (SZ95 sebocytes; 18 hours after stimulation) | IL-6 and IL-8 production (SZ95 sebocytes; MALP-2 50 ng/ml, LPS 100 ng/ml) |
| --- | --- | --- | --- | --- | --- | --- | --- | --- | --- | --- | --- | --- | --- |
| CCCCCCCC/C=C\CCCCCCCC(=O)O [Oleate, oleic acid] | strong bacteriostatic and bactericidal activity | 13.3 µM (≈ 3.76 µg/mL) | 8.3 µM (≈ 2.34 µg/mL) | > 75 µM | strong bacteriostatic and bactericidal activity | – | – | – | – | – | – | – | – |
| CCCCCC/C=C\CCCCCCCC(=O)O [Palmitoleate, palmitoleic acid] | strong bacteriostatic and bactericidal activity | 10 µM (≈ 2.54 µg/mL) | 10 µM (≈ 2.54 µg/mL) | 36.6 µM (≈ 9.31 µg/mL) | strong bacteriostatic and bactericidal activity | 50 µM (≈ 12.7 µg/mL) | 90% | one fourth | marked reduction of bacterial growth between days 1 and 4 | – | – | – | – |
| MALP-2 | – | – | – | – | – | – | – | – | – | 4 fold | up-regulated | slightly but specifically induced | increased IL-6 and IL-8 production |

Reference: patent US20090202519A1, “Compositions and methods for treating gram positive bacterial infection in a mammalian subject” (The Scripps Research Institute, priority 2005, published 2009)
